Test results published in ChEMBL document CHEMBL4507307 (2021).
One block for each compound: values may come before it.

Columns and labels:
[1] = target: 5-hydroxytryptamine receptor 1A (Homo sapiens, UniProt P08908); assay: GPCRScan assay: inhibition of 5-HT1A; set-up: radioligand conc. used [nm] 0.5 – 1.0, parental cells stable CHO
[2] = target: 5-hydroxytryptamine receptor 1B (Homo sapiens, UniProt P28222); assay: GPCRScan assay: inhibition of 5-HT1B; set-up: radioligand conc. used [nm] 0.6 – 1.5, parental cells stable HEK
[3] = target: 5-hydroxytryptamine receptor 1D (Homo sapiens, UniProt P28221); assay: GPCRScan assay: inhibition of 5-HT1D; set-up: radioligand conc. used [nm] 1.0 – 2.0, parental cells HEKT
[4] = target: 5-hydroxytryptamine receptor 1E (Homo sapiens, UniProt P28566); assay: GPCRScan assay: inhibition of 5-HT1E; set-up: radioligand conc. used [nm] 2.1 – 5.0, parental cells stable HEK
[5] = target: 5-hydroxytryptamine receptor 2C (Homo sapiens, UniProt P28335); assay: GPCRScan assay: inhibition of 5-HT2C; set-up: radioligand conc. used [nm] 1.0 – 2.5, parental cells HEK T
Histamine H2 receptor = Histamine H2 receptor (Homo sapiens, UniProt P25021); assay: GPCRScan assay: inhibition of H2; set-up: radioligand conc. used [nm] 0.02 – 0.05, parental cells Stable HEK
Histamine H2 receptor, sequence (P25021 whole entry): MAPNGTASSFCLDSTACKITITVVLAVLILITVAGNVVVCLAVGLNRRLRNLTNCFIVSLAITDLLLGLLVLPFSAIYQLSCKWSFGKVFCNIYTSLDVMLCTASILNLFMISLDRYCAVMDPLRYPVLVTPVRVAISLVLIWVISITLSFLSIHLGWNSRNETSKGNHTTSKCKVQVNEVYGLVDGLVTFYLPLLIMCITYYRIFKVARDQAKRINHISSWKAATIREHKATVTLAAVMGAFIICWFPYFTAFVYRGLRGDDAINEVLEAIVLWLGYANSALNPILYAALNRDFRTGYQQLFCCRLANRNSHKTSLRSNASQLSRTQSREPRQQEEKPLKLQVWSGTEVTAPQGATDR

[6] = target: Muscarinic acetylcholine receptor M1 (Homo sapiens, UniProt P11229); assay: GPCRScan assay: inhibition of M1; set-up: radioligand conc. used [nm] 0.3 – 1.2, parental cells stable CHO
Muscarinic acetylcholine receptor M1, sequence (P11229 whole entry): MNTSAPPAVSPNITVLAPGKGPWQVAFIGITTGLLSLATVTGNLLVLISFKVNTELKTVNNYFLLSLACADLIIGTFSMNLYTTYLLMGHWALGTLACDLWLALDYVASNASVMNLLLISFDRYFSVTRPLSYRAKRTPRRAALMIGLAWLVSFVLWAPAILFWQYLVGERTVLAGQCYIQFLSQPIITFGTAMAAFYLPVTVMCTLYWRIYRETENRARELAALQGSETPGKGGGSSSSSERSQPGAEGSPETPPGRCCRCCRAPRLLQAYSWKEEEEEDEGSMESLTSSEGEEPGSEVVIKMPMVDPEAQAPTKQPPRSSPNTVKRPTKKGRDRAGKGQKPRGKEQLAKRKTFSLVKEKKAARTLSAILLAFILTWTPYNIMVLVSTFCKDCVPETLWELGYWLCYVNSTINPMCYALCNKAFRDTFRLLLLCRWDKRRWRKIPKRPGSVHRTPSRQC

[7] = target: T1, Beta-3 adrenergic receptor (Homo sapiens, UniProt P13945); assay: GPCRScan assay: inhibition of Beta3; set-up: radioligand conc. used [nm] 0.2 – 0.5, parental cells HEK Flp-In
[8] = target: Alpha-1D adrenergic receptor (Homo sapiens, UniProt P25100); assay: GPCRScan assay: inhibition of Alpha1D; set-up: radioligand conc. used [nm] 0.3 – 1.0, parental cells stable
[9] = target: Sigma intracellular receptor 2 (Homo sapiens, UniProt Q5BJF2); assay: GPCRScan assay: inhibition of Sigma 2; set-up: radioligand conc. used [nm] 5.0, parental cells HEKT
[10] = target: Sigma non-opioid intracellular receptor 1 (Homo sapiens, UniProt Q99720); assay: GPCRScan assay: inhibition of Sigma 1; set-up: radioligand conc. used [nm] 4.0 – 5.0, parental cells HEKT
Sigma non-opioid intracellular receptor 1, sequence (Q99720 whole entry): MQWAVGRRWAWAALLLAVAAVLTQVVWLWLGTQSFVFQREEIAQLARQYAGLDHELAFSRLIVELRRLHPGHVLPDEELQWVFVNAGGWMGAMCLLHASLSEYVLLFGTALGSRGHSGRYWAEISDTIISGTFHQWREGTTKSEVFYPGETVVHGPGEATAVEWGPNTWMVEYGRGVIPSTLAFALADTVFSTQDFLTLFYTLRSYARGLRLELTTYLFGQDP

[11] = target: T2, Dual specificity protein kinase CLK2 (Homo sapiens, UniProt P49760); assay: NanoBRET (SGC Frankfurt) (CLK2)
[12] = target: 5-hydroxytryptamine receptor 1A (Homo sapiens) (UniProt P08908); conditions: Compound concentration 10.0 uM
[13] = target: 5-hydroxytryptamine receptor 6 (Homo sapiens) (UniProt P50406); conditions: Compound concentration 10.0 uM
[14] = target: T1, Beta-3 adrenergic receptor; conditions: Compound concentration 10.0 uM
[15] = target: T2, Dual specificity protein kinase CLK2; assay: CLK2 Kinase activity screen
[16] = target: SRSF protein kinase 1 (Homo sapiens) (UniProt Q96SB4); assay: SRPK1 Kinase activity screen
[17] = target: SRSF protein kinase 2 (Homo sapiens) (UniProt P78362); assay: SRPK2 Kinase activity screen
[18] = target: Aurora kinase A (Homo sapiens) (UniProt O14965); assay: AURKA (Aurora A) Kinase activity screen
[19] = target: Serine/threonine-protein kinase B-raf (Homo sapiens) (UniProt P15056); assay: BRAF Kinase activity screen
[20] = target: Cyclin-dependent kinase 5/CDK5 activator 1 (Homo sapiens) (UniProt Q00535+Q15078); assay: CDK5/p25 Kinase activity screen; assay type: protein-complex assay
[21] = target: Serine/threonine-protein kinase Chk1 (Homo sapiens) (UniProt O14757); assay: CHEK1 (CHK1) Kinase activity screen
[22] = target: Serine/threonine-protein kinase Chk2 (Homo sapiens) (UniProt O96017); assay: CHEK2 (CHK2) Kinase activity screen
[23] = target: Ephrin type-A receptor 5 (Homo sapiens) (UniProt P54756); assay: EPHA5 Kinase activity screen
[24] = target: Ephrin type-B receptor 1 (Homo sapiens) (UniProt P54762); assay: EPHB1 Kinase activity screen
Ephrin type-B receptor 1 (Homo sapiens), sequence (P54762 whole entry): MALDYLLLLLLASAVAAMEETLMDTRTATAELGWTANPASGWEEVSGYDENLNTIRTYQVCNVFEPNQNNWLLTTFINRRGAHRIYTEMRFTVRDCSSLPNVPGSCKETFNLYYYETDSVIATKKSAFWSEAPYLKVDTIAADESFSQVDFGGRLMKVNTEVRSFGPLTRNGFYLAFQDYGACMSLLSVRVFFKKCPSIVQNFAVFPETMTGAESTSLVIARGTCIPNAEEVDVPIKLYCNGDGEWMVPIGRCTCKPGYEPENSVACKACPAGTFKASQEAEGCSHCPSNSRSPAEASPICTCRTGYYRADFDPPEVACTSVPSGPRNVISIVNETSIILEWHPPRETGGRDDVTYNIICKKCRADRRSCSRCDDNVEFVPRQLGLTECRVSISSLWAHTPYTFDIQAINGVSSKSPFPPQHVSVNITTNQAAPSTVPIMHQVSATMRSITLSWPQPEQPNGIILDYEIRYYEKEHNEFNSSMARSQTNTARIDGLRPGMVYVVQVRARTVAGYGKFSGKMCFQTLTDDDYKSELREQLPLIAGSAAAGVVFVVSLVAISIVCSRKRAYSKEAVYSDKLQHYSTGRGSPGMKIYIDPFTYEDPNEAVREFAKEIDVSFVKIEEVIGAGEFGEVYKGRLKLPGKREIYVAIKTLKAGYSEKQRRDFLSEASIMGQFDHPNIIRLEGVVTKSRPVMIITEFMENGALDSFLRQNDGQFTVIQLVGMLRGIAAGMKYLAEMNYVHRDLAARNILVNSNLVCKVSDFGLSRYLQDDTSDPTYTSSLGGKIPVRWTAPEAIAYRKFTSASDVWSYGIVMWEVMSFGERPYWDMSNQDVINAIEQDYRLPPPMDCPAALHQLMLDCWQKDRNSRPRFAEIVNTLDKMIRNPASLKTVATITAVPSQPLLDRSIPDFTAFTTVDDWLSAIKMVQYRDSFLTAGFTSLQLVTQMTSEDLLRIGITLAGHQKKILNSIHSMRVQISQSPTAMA

[25] = target: Fibroblast growth factor receptor 1 (Homo sapiens) (UniProt P11362); assay: FGFR1 Kinase activity screen
Fibroblast growth factor receptor 1 (Homo sapiens), sequence (P11362 22-822 limits assumed): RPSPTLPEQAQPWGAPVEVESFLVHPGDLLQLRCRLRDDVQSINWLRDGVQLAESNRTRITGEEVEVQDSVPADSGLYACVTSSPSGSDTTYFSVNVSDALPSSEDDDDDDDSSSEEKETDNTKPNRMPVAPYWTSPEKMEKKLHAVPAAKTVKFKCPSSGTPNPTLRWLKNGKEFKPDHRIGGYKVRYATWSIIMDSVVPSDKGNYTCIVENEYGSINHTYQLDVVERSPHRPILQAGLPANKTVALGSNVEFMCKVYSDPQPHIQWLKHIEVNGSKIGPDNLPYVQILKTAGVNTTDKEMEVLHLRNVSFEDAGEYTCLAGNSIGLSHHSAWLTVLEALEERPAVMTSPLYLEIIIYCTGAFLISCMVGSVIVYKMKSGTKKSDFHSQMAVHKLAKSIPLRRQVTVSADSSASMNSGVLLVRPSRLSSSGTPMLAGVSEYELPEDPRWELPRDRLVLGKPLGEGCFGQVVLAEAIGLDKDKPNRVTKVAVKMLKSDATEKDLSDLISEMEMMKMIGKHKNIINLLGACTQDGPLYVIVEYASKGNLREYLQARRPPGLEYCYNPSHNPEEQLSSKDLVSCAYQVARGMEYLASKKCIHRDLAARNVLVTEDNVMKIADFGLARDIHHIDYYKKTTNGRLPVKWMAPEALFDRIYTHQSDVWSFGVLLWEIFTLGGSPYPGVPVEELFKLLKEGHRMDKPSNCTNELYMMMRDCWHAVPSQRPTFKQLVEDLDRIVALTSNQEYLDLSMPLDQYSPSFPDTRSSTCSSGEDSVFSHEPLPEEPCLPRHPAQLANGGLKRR

[26] = target: Serine/threonine-protein kinase mTOR (Homo sapiens) (UniProt P42345); assay: FRAP1 (mTOR) Kinase activity screen
[27] = target: Glycogen synthase kinase-3 beta (Homo sapiens) (UniProt P49841); assay: GSK3B (GSK3 beta) Kinase activity screen
[28] = target: Inhibitor of nuclear factor kappa-B kinase subunit beta (Homo sapiens) (UniProt O14920); assay: IKBKB (IKK beta) Kinase activity screen
[29] = target: Mitogen-activated protein kinase 11 (Homo sapiens) (UniProt Q15759); assay: MAPK11 (p38 beta) Kinase activity screen
[30] = target: Mitogen-activated protein kinase 3 (Homo sapiens) (UniProt P27361); assay: MAPK3 (ERK1) Kinase activity screen
Mitogen-activated protein kinase 3 (Homo sapiens), sequence (P27361 whole entry): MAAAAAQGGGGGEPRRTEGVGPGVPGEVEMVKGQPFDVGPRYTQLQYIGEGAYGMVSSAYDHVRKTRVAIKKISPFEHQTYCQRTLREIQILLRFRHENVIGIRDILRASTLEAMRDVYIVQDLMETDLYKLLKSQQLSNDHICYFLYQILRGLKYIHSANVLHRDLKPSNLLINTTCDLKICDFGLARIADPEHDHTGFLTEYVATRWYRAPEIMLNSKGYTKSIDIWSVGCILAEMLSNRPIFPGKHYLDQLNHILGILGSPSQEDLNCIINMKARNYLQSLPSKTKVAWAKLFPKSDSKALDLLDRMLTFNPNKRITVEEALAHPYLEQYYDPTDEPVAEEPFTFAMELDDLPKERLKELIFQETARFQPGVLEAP

[31] = target: Hepatocyte growth factor receptor (Homo sapiens) (UniProt P08581); assay: MET (cMet) Kinase activity screen; conditions: Compound concentration 1.0 uM
[32] = target: Serine/threonine-protein kinase Nek1 (Homo sapiens) (UniProt Q96PY6); assay: NEK1 Kinase activity screen
[33] = target: Serine/threonine-protein kinase pim-1 (Homo sapiens) (UniProt P11309); assay: PIM1 Kinase activity screen
[34] = target: Focal adhesion kinase 1 (Homo sapiens) (UniProt Q05397); assay: PTK2 (FAK) Kinase activity screen
[35] = target: Proto-oncogene tyrosine-protein kinase Src (Homo sapiens) (UniProt P12931); assay: SRC Kinase activity screen
[36] = target: Angiopoietin-1 receptor (Homo sapiens) (UniProt Q02763); assay: TEK (Tie2) Kinase activity screen
[37] = target: Calcium/calmodulin-dependent protein kinase type 1 (Homo sapiens) (UniProt Q14012); assay: CAMK1 (CaMK1) Kinase activity screen
Calcium/calmodulin-dependent protein kinase type 1 (Homo sapiens), sequence (Q14012 whole entry, looked up): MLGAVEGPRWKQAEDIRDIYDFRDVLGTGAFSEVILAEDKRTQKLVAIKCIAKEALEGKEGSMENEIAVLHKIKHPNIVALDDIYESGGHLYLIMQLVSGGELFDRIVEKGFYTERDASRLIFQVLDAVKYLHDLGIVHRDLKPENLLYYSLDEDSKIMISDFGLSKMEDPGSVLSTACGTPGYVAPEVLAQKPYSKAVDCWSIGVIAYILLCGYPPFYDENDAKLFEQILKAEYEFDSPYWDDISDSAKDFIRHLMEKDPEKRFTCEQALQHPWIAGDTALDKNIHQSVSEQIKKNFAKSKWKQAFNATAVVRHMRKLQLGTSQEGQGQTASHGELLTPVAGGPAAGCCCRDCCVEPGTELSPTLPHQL

[38] = target: CDK7/Cyclin H/MNAT1 (Homo sapiens) (UniProt P51946+P50613+P51948); assay: CDK7/cyclin H/MNAT1 Kinase activity screen; assay type: protein-complex assay
[39] = target: Death-associated protein kinase 1 (Homo sapiens) (UniProt P53355); assay: DAPK1 Kinase activity screen
Death-associated protein kinase 1 (Homo sapiens), sequence (P53355 whole entry, looked up): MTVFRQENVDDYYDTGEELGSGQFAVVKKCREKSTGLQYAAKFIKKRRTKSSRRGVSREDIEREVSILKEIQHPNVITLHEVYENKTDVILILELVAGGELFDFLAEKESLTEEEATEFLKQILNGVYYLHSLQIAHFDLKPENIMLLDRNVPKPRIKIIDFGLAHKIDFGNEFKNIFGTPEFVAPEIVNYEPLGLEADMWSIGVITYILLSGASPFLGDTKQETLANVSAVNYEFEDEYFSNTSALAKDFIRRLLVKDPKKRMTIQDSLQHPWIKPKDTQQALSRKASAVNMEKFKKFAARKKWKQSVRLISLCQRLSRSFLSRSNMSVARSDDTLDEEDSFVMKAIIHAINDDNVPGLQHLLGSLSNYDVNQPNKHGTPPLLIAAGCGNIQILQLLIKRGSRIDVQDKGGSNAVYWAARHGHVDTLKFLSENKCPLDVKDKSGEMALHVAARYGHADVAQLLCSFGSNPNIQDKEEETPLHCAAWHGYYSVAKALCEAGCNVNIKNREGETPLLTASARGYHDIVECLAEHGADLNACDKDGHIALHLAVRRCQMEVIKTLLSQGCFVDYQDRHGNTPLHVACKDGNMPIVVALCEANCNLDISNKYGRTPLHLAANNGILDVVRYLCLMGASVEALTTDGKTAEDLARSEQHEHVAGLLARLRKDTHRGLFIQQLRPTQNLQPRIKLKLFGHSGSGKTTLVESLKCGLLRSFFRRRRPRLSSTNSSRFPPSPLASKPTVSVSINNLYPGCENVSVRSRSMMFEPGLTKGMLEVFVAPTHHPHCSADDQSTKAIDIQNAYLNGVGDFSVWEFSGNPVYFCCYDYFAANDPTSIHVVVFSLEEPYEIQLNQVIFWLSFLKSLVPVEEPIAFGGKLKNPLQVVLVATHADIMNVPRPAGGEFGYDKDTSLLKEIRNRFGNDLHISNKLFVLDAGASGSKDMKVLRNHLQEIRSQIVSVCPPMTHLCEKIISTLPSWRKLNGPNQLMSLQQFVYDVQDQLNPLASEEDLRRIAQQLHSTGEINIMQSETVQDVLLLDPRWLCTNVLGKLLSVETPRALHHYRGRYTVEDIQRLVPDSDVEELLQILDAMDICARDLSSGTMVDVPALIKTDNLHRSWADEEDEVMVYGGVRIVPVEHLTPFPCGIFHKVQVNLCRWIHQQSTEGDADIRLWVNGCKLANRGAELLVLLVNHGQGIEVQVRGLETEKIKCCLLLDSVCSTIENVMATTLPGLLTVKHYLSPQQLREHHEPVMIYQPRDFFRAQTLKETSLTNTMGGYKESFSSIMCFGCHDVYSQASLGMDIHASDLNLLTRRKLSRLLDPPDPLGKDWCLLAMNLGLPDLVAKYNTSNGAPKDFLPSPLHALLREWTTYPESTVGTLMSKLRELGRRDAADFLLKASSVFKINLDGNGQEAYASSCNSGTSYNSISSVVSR

[40] = target: PI3-kinase p110-alpha/p85-alpha (Homo sapiens) (UniProt P27986+P42336); assay: PIK3CA/PIK3R1 (p110 alpha/p85 alpha) Kinase activity screen; assay type: protein-complex assay
[41] = Compound concentration 0.123 uM

- Ki [1]: 2560 nM
- Ki [2]: 2170 nM
- Ki ([3]; read-out: Ki): 3070 nM
- Ki ([3]; read-out: pKi (converted)): 2820 nM
- Ki ([4]; read-out: Ki): 3560 nM
- Ki ([4]; read-out: pKi (converted)): 3470 nM
- Ki ([5]; read-out: Ki): 1070 nM
- Ki ([5]; read-out: pKi (converted)): 1050 nM
- Ki (Histamine H2 receptor; read-out: Ki): 1730 nM
- Ki (Histamine H2 receptor; read-out: pKi (converted)): 1620 nM
- Ki ([6]; read-out: Ki): 2090 nM
- Ki ([6]; read-out: pKi (converted)): 1950 nM
- Ki [7]: > 10000 nM
- pKi [7]: < 5
- Ki [8]: 1450 nM
- Ki [9]: 412 nM
- Ki ([10]; read-out: Ki): 798 nM
- Ki ([10]; read-out: pKi (converted)): 741 nM
- IC50 [11]: > 10000 nM (not active)
- inhibition [12]: 51.3%
- inhibition [13]: 30.8%
- inhibition [14]: 78.1%
SMILES: CN1CCN(C(=O)C(C)(C)c2ccc(C(=O)Nc3cn4cc(-c5cc(C(C)(C)C)cc(C(C)(C)C)c5)ccc4n3)cc2)CC1 [T3-CLK-N]

- inhibition [15, 41]: 92.1%
- inhibition ([15]; Compound concentration 1.11 uM): 100%
- inhibition [16, 41]: -3.09%
- inhibition ([16]; Compound concentration 1.11 uM): -2.58%
- inhibition [17, 41]: 1.82%
- inhibition ([17]; Compound concentration 1.11 uM): 5.16%
- inhibition ([18]; Compound concentration 0.1 uM): 4.51%
- inhibition ([18]; Compound concentration 1.0 uM): 8.55%
- inhibition ([19]; Compound concentration 0.1 uM): 8.71%
- inhibition ([19]; Compound concentration 1.0 uM): 17.2%
- inhibition ([20]; Compound concentration 0.1 uM): 1.84%
- inhibition ([20]; Compound concentration 1.0 uM): 0.79%
- inhibition ([21]; Compound concentration 0.1 uM): 9.74%
- inhibition ([21]; Compound concentration 1.0 uM): 18.4%
- inhibition ([22]; Compound concentration 0.1 uM): 21.9%
- inhibition ([22]; Compound concentration 1.0 uM): 24.2%
- inhibition ([23]; Compound concentration 0.1 uM): -5.79%
- inhibition ([23]; Compound concentration 1.0 uM): -4.96%
- inhibition ([24]; Compound concentration 0.1 uM): 4.83%
- inhibition ([24]; Compound concentration 1.0 uM): 4.09%
- inhibition ([25]; Compound concentration 0.1 uM): 4.26%
- inhibition ([25]; Compound concentration 1.0 uM): 9.19%
- inhibition ([26]; Compound concentration 0.1 uM): -5.58%
- inhibition ([26]; Compound concentration 1.0 uM): -8.53%
- inhibition ([27]; Compound concentration 0.1 uM): -3.21%
- inhibition ([27]; Compound concentration 1.0 uM): -3.11%
- inhibition ([28]; Compound concentration 0.1 uM): -6.12%
- inhibition ([28]; Compound concentration 1.0 uM): -4.71%
- inhibition ([29]; Compound concentration 0.1 uM): 0.672%
- inhibition ([29]; Compound concentration 1.0 uM): 0.93%
- inhibition ([30]; Compound concentration 0.1 uM): 5.63%
- inhibition ([30]; Compound concentration 1.0 uM): 6.05%
- inhibition [31]: -7.39%
- inhibition ([32]; Compound concentration 0.1 uM): 3.86%
- inhibition ([32]; Compound concentration 1.0 uM): 25.1%
- inhibition ([33]; Compound concentration 0.1 uM): 15.6%
- inhibition ([33]; Compound concentration 1.0 uM): 11.3%
- inhibition ([34]; Compound concentration 0.1 uM): -9.12%
- inhibition ([34]; Compound concentration 1.0 uM): -7.35%
- inhibition ([35]; Compound concentration 0.1 uM): 13.2%
- inhibition ([35]; Compound concentration 1.0 uM): 46.7%
- inhibition ([36]; Compound concentration 0.1 uM): 0.108%
- inhibition ([36]; Compound concentration 1.0 uM): -0.329%
- inhibition ([37]; Compound concentration 0.1 uM): 7.14%
- inhibition ([37]; Compound concentration 1.0 uM): 5.32%
- inhibition ([38]; Compound concentration 0.1 uM): 0.551%
- inhibition ([38]; Compound concentration 1.0 uM): -3.41%
- inhibition ([40]; Compound concentration 0.1 uM): 3.58%
- inhibition ([40]; Compound concentration 1.0 uM): 3.6%
SMILES: CN1CCN(C(=O)C(C)(C)c2ccc(C(=O)Nc3cn4cc(-c5ccncc5)ccc4n3)cc2)CC1 [T3-CLK]
- inhibition ([39]; Compound concentration 0.1 uM): -4.42%
- inhibition ([39]; Compound concentration 1.0 uM): -6.43%
